Entries after “also recorded” stand apart in the source; their conditions may differ. Where two headings read alike, the source gives them in different places. Where a SMILES comes first, the peptide text is derived from it. Where no end group is shown, it is not given here. [ ]: non-standard residue; d: D form. The star is where a group is joined. Biotin = O=C1N[C@H]2[C@H](CS[C@H]2CCCCC(=O)*)N1; βAla = NCCC(=O)O

The nature of series [1]: TBS containing 10% fresh mouse serum. To be noted: 37° C., up to 16 hr.
Series [2] relates to DO11.10 cells. The series can be described thus: Growth of CD4 T cells: proliferation of DO11.10 cells by OVII modified peptides (3H-thymidine). In kind it is cell-based, mouse. To be noted: for sensitization activity compared to OVII+ (in words): effect of lysine, FIG. 20.
For series [3], the system named is serum peptidase.
Protocol: (§1) Peptide was digested in TBS containing 10% fresh mouse serum or fresh human serum. After incubation at 37° C. for a given time, 1% trifluoro acid was added to remove various serum proteins by precipitation. After short centrifugation, the soluble fraction was analyzed by reversed-phase HPLC using a C18 analysis column. To normalize variation in the total amount of the peptide loaded for each HPLC, the peak of non-protein components contained in the serum, which is absorbed at the wavelength of 220 nm, was used as an internal control. The peak area of undigested peptides was quantitatively monitored by Chromatopac C-R8A (Shimadzu Corp., Kyoto, Japan), and the amount of the remaining peptide was calculated.
(§2) Therefore, the inventor examined the digestion resistance of peptide in vitro in a 10% fresh mouse serum. The amount of a remaining undigested peptide was quantified by HPLC.
Series [4] deals with DO11.10 cells. The series can be described thus: Antigen presentation by F2-IA^d vascular endothelial cells (CD69 expression by DO11.10 cells). In kind it is cell-based, mouse. The protocol:
EL4 cells were first opsonized with RGD peptide. Next, 5 mg/ml OVA protein was loaded on the cytoplasm by osmotic pressure loading. After sufficient washing, 2×10^6 EL4 cells were added to a confluent culture medium of F2-IA^d cells on a 24-well plate (cultured for 2 days in advance in the presence of 500 U/ml rmIFN-γ). As a control, EL4 and EG7 mock-loaded with PBS were RGD-modified in the same manner and used. EL4 and other target cells were added to F2-IA^d, and the cell mixture was cultured for 24 hr. As for the control well wherein F2-IA^d cells were directly loaded with OVAII peptide, the cells were pulsed with peptide for 2 hr at the end of the culture. After removing the non-adherent cells and debris of dead cells, the surface of the adhered F2-IA^d cells was sufficiently washed. In an antigen presentation inhibitory experiment using chloroquine, 100 μM chloroquine was added 30 min before addition of EL4, EL4 loaded with OVA or 0.25 mg/ml OVA protein. Furthermore, F2-IA^d cells were cultured for 3 days in the continuous presence of chloroquine.
Whether the F2-IA^d cells presented the target antigen polypeptide on the cell surface was evaluated by monitoring the expression of CD69 by DO11.10 cells. The antigen-presenting F2-IA^d cells and DO11.10 cells were mixed and centrifuged to contact the cells with one another. After 6 hr and 24 hr, the cells were stained with biotin-labeled anti CD69 mAb (H1.2F3, BD Biosciences), and the expression of CD69 by DO11.10 cells was detected by flow cytometry (stained positive with FITC-labeled KJ1.26 (anti clonotypic TCR mAb)).

Series [5] has as its system serum peptidase. The series can be described thus: Degradation of peptide in 10% fresh mouse serum (HPLC of remaining peptide). To be noted: for digestion resistance to serum peptidases (in words): up to 16 hr (FIG. 21).
Protocol: as §1, §2
Series [6] has as its system EG7 tumor. Briefly: Antitumor activity by in vivo immunization with OVA-derived peptides (EL4 / EG7 tumor). To be noted: CBF1 mouse, peptide-loaded LPS blast i.p. 3 times; EL4 / EG7 tumor (FIG. 8). From the text: CBF1 mouse was immunized with LPS blast of splenocyte pulsed with either λ repressor peptide ([…]; SEQ ID NO: 39) or OVAII peptide as a Th epitope peptide, and K^b-binding OVA-I peptide, which is a CTL inducing peptide. LPS blast derived from one spleen was pulsed with peptide, and intraperitoneally injected to immunize two mice. The next day of the third immunization, 9×10^6 EL4 cells and 1.2×10^7 EG7 cells were intradermally transplanted in a pair on the back skin of the mice. The tumor size was measured every other day. Immunization was performed once again 2 weeks from the tumor transplantation.
To verify the anti-tumor effect of inducing tumor-specific Th cells in vivo, the inventor compared the immunization protocol that induces 1. CTL alone, 2. CTL and a third party antigen-specific Th cell, and 3. CTL and tumor-specific Th cell. As the antigen presenting cell, LPS blast of spleen cell was used, and the APC loaded with each peptide alone or the mixture of each peptide was injected intraperitoneally 3 times (once per week). On the day of third immunization, 9×10^6 EL4 and 1.2×10^7 EG7 tumor were innoculated on the opposite sides of the back, and the tumor diameter was measured from day 4.

For the molecule ISQAVHAAHAEINEAPA, the cleaved bond result in series [1] is “Ile-S, major”.

Regarding SKISQAVHAAHAEINEARK [KOVII+K], the “sensitization activity compared to OVII+ (in words)” value in series [2] is on record as “no difference in the sensitization activity compared to OVII+”.

As for Ac-ISQAVHAAHAEINEA [ac-OVII], the “sensitization activity / Th inducing activity (in words)” value in series [2] (10% FCS-DMEM, compared to OVII (FIG. 11)) was “almost no influence on the sensitization activity; also recorded: no difference from OVII”. Further, the “digestion resistance to serum peptidases (in words)” value (shortened to “digestion resistance”) in series [3] is given as “higher protection effect than the above-mentioned single modification of the C terminal side”.

On to `CC[C@H](C)[C@H](NC(=O)[C@H](CCC(=O)O)NC(=O)[C@H](C)NC(=O)[C@H](Cc1c[nH]cn1)NC(=O)[C@H](C)NC(=O)[C@H](C)NC(=O)[C@H](Cc1c[nH]cn1)NC(=O)[C@@H](NC(=O)[C@H](C)NC(=O)[C@H](CCC(N)=O)NC(=O)[C@H](CO)NC(=O)[C@@H](NC(=O)[C@H](CCCCNC(=O)CCCC[C@@H]1SC[C@@H]2NC(=O)N[C@@H]21)NC(=O)[C@@H](N)CO)[C@@H](C)CC)C(C)C)C(=O)N[C@@H](CC(N)=O)C(=O)N[C@@H](CCC(=O)O)C(=O)N[C@@H](C)C(=O)N[C@@H](CCCNC(=N)N)C(=O)O` [bOVII+] (H-SK(Biotin)ISQAVHAAHAEINEAR-OH; N-terminus and C-terminus assumed), for which the “digestion resistance” value in series [3] is listed as “no digestion resistance”.

As to SKISQAVHAAHAEINEARK^bioG, in series [1], the cleaved bond entry is “Ser-K, major” and the fragment found entry is recorded as “product missing one biotin”.

For the molecule “HELM PEPTIDE1{I.S.Q.A.V.H.A.A.H.A.E.I.N.E.A.P.[bAla]}$$$$V2.0 (N-terminus and C-terminus assumed; SMILES CC[C@H](C)[C@H](N)C(=O)N[C@@H](CO)C(=O)N[C@@H](CCC(N)=O)C(=O)N[C@@H](C)C(=O)N[C@H](C(=O)N[C@@H](Cc1c[nH]cn1)C(=O)N[C@@H](C)C(=O)N[C@@H](C)C(=O)N[C@@H](Cc1c[nH]cn1)C(=O)N[C@@H](C)C(=O)N[C@@H](CCC(=O)O)C(=O)N[C@H](C(=O)N[C@@H](CC(N)=O)C(=O)N[C@@H](CCC(=O)O)C(=O)N[C@@H](C)C(=O)N1CCC[C@H]1C(=O)NCCC(=O)O)[C@@H](C)CC)C(C)C)”, in series [1], the cleaved bond entry is listed as “Ile-S, major”.

With `CCN(CC)CCCC(C)Nc1ccnc2cc(Cl)ccc12` (stereo not shown) [chloroquine], the “antigen presentation of OVA-loaded EL4 by F2-IA^d cells” value in series [4] (100 μM chloroquine (FIG. 4)) is “sensitive to chloroquine”. Besides, in series [4] (100 μM chloroquine (FIGS. 3, 4)), the “presentation of OVA protein by F2-IA^d cells” value was “decreased”.

Turning to “SK^bioISQAVHAAHAEINEAR (H-SK(Biotin)ISQAVHAAHAEINEAR-OH; N-terminus and C-terminus assumed; SMILES CC[C@H](C)[C@H](NC(=O)[C@H](CCC(=O)O)NC(=O)[C@H](C)NC(=O)[C@H](Cc1c[nH]cn1)NC(=O)[C@H](C)NC(=O)[C@H](C)NC(=O)[C@H](Cc1c[nH]cn1)NC(=O)[C@@H](NC(=O)[C@H](C)NC(=O)[C@H](CCC(N)=O)NC(=O)[C@H](CO)NC(=O)[C@@H](NC(=O)[C@H](CCCCNC(=O)CCCC[C@@H]1SC[C@@H]2NC(=O)N[C@@H]21)NC(=O)[C@@H](N)CO)[C@@H](C)CC)C(C)C)C(=O)N[C@@H](CC(N)=O)C(=O)N[C@@H](CCC(=O)O)C(=O)N[C@@H](C)C(=O)N[C@@H](CCCNC(=N)N)C(=O)O)”, in series [1], the cleaved bond entry was “A-Arg, major” and the fragment found entry is recorded as “product missing one biotin”.

For `CC[C@H](C)[C@H](NC(=O)[C@H](CCC(=O)O)NC(=O)[C@H](C)NC(=O)[C@H](Cc1c[nH]cn1)NC(=O)[C@H](C)NC(=O)[C@H](C)NC(=O)[C@H](Cc1c[nH]cn1)NC(=O)[C@@H](NC(=O)[C@H](C)NC(=O)[C@H](CCC(N)=O)NC(=O)[C@H](CO)NC(=O)[C@@H](NC(=O)[C@H](CO)NC(=O)[C@@H]1CCCN1)[C@@H](C)CC)C(C)C)C(=O)N[C@@H](CC(N)=O)C(=O)N[C@@H](CCC(=O)O)C(=O)N[C@@H](C)C(=O)N1CCC[C@H]1C(=O)NCCC(=O)O` [POVIIPβ], the “digestion resistance” value in series [5] (10% fresh mouse serum) is recorded as “further additional protective effect”.

In the case of `CC[C@H](C)[C@H](N)C(=O)N[C@@H](CO)C(=O)N[C@@H](CCC(N)=O)C(=O)N[C@@H](C)C(=O)N[C@H](C(=O)N[C@@H](Cc1c[nH]cn1)C(=O)N[C@@H](C)C(=O)N[C@@H](C)C(=O)N[C@@H](Cc1c[nH]cn1)C(=O)N[C@@H](C)C(=O)N[C@@H](CCC(=O)O)C(=O)N[C@H](C(=O)N[C@@H](CC(N)=O)C(=O)N[C@@H](CCC(=O)O)C(=O)N[C@@H](C)C(=O)N1CCC[C@H]1C(=O)NCCC(=O)O)[C@@H](C)CC)C(C)C` [OVIIPβ] (HELM PEPTIDE1{I.S.Q.A.V.H.A.A.H.A.E.I.N.E.A.P.[bAla]}$$$$V2.0; N-terminus and C-terminus assumed), the “digestion resistance” value in series [5] (10% fresh mouse serum) is “the protection effect was further enhanced, and the amount of the peptide remaining 16 hr later increased”.

`CC[C@H](C)[C@H](N)C(=O)N[C@@H](CO)C(=O)N[C@@H](CCC(N)=O)C(=O)N[C@@H](C)C(=O)N[C@H](C(=O)N[C@@H](Cc1c[nH]cn1)C(=O)N[C@@H](C)C(=O)N[C@@H](C)C(=O)N[C@@H](Cc1c[nH]cn1)C(=O)N[C@@H](C)C(=O)N[C@@H](CCC(=O)O)C(=O)N[C@H](C(=O)N[C@@H](CC(N)=O)C(=O)N[C@@H](CCC(=O)O)C(=O)N[C@@H](C)C(=O)NCC(=O)NCCC(=O)O)[C@@H](C)CC)C(C)C` [OVIIβ] (HELM PEPTIDE1{I.S.Q.A.V.H.A.A.H.A.E.I.N.E.A.G.[bAla]}$$$$V2.0; N-terminus and C-terminus assumed): in series [3], the “protection of peptide from digestion” value was “protects about half of the peptide”.

As for “SK^bioISQAVHAAHAEINEARK^bio (SK(Biotin)ISQAVHAAHAEINEARK(Biotin)) [bOVII+b]”, in series [2] (bOVII+ vs KOVII+, bOVII+b vs KOVII+K (FIG. 20)), the “activity to induce proliferation of DO11.10 Th cell relative to KOVII+ and KOVII+K, respectively” value is “about 10 fold”. Also, the “increase in sensitization activity compared to OVIIβ, OVIIPA” value in series [2] (relative to peptides with Pro at second position from C terminal and/or β-Ala at C terminal (OVIIβ, OVIIPA, FIG. 11)) worked out at 100 fold.

For the molecule “LEDARRLKAIYEKKK [X peptide, third party antigen peptide]”, the “tumor control, Th peptide together with OVA-I” value in series [6] is on record as “could delay tumor growth as compared to CTL single induction, but the mouse finally died”.

On to PSK^bioISQAVHAAHAEINEARK^bioPβA, for which, in series [1], the fragment found result is reported as “product which has lost the biotin molecule on the N terminal side, major”.

In the case of SKISQAVHAAHAEINEAR [KOVII+], the “sensitization activity compared to OVII+ (in words)” value in series [2] is “no difference in the sensitization activity compared to OVII+”.

With “OVA-I: K^b-binding OVA-I peptide, which is a CTL inducing peptide (SIINFEKL; UniProt P01012 258-265, looked up, fragment)”, the “tumor control, CTL-inducing peptide alone” value in series [6] is recorded as “tumor control was only possible to a limited degree”.

Take `CC[C@H](C)[C@H](NC(=O)[C@H](CCC(=O)O)NC(=O)[C@H](C)NC(=O)[C@H](Cc1c[nH]cn1)NC(=O)[C@H](C)NC(=O)[C@H](C)NC(=O)[C@H](Cc1c[nH]cn1)NC(=O)[C@@H](NC(=O)[C@H](C)NC(=O)[C@H](CCC(N)=O)NC(=O)[C@H](CO)NC(=O)[C@@H](NC(=O)[C@H](CCCCNC(=O)CCCC[C@@H]1SC[C@@H]2NC(=O)N[C@@H]21)NC(=O)[C@H](CO)NC(=O)[C@@H]1CCCN1)[C@@H](C)CC)C(C)C)C(=O)N[C@@H](CC(N)=O)C(=O)N[C@@H](CCC(=O)O)C(=O)N[C@@H](C)C(=O)N[C@@H](CCCCNC(=O)CCCC[C@@H]1SC[C@@H]2NC(=O)N[C@@H]21)C(=O)N1CCC[C@H]1C(=O)NCCC(=O)O` [PbOVIIbPβ] (H-PSK(Biotin)ISQAVHAAHAEINEAK(Biotin)P[βAla]-OH; N-terminus and C-terminus assumed): the “level of epitope remaining in the serum compared with POVIIPβ” value in series [5] (mouse, serum) is reported as “almost the same for both peptides”.

For SK^bioISQAVHAAHAEINEARK^bio, in series [1], the cleaved bond entry is on record as “A-R, major” and the fragment found result is “product missing one biotin”.

Take ISQAVHAAHAEINEAPA [OVIIPA]: in series [5] (10% fresh mouse serum, within 4 hr), the “protection of peptide from digestion” value was “protects about half of the peptide”.

The values are drawn from US20140341939A1 (NATIONAL UNIVERSITY CORPORATION KOCHI UNIVERSITY, priority 2011, published 2014).
